Data as given in EP4467141A1, “PYRAZOLO-QUINOLINES AS SELECTIVE INHIBITORS OF GENOTOXIC STRESS-INDUCED IKK/NF- KB PATHWAYS FOR CANCER THERAPY” (Max-Delbrück-Centrum für Molekulare Medizin in der …, priority 2023, dated 2024).

Assays:
Assay in all cases: Kinase panel study
Format in all cases: biochemical
Settings in all cases: read-out: Percentage of inhibition; for inhibition at 1 µM: 1000nM; for inhibition at 10 µM: 10000nM
MELK = biological target: T1, MELK (Homo sapiens, UniProt Q14680)
T1 construct: purchased Thermo Fisher Scientific
Procedure, shortened: (§1)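 Readout is percentage kinase inhibition. Testing used 1 µM or 10 µM compound in externally run ZLyte/Adapta in vitro assays, and IC50 values were derived within the same panel.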

ABL1 = biological target: T2, ABL1 (Homo sapiens, UniProt P00519)
T2 construct: purchased Thermo Fisher Scientific
T2 sequence (P00519 whole entry): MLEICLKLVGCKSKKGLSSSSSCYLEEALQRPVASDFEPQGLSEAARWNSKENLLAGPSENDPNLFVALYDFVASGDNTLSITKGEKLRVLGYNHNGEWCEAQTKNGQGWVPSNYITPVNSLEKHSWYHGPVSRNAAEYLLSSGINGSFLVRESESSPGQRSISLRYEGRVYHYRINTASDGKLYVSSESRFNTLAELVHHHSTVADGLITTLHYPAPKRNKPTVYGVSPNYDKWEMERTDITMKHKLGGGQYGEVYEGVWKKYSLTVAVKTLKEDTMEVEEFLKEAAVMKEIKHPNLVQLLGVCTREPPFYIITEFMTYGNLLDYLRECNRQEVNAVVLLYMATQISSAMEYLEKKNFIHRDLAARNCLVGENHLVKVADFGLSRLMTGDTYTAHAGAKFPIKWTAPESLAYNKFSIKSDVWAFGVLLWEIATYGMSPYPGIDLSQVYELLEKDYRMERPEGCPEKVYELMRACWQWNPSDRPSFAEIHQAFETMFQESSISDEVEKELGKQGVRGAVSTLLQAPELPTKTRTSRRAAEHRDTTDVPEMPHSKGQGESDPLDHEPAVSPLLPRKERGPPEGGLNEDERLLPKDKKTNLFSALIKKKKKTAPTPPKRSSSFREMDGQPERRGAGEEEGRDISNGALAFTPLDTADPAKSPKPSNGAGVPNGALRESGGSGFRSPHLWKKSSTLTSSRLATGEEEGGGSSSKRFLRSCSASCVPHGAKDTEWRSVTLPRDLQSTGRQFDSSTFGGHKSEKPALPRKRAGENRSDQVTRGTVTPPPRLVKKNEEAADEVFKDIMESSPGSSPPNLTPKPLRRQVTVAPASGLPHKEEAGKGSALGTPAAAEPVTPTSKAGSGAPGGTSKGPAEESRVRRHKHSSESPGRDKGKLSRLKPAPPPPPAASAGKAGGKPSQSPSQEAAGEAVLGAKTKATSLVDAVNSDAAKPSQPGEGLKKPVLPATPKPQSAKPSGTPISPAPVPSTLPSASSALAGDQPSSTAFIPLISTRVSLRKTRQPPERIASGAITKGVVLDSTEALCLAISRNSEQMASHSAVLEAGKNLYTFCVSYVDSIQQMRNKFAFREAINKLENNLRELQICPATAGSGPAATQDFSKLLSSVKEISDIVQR
Procedure, shortened: as §1

GSK3A (GSK3 alpha) = biological target: T3, GSK3A (GSK3 alpha) (Homo sapiens, UniProt P49840)
T3 construct: purchased Thermo Fisher Scientific
Procedure, shortened: as §1

ABL2 (Arg) = biological target: T4, ABL2 (Arg) (Homo sapiens, UniProt P42684)
T4 construct: purchased Thermo Fisher Scientific
Procedure, shortened: as §1

GRK4 = biological target: T5, GRK4 (Homo sapiens, UniProt P32298)
T5 construct: purchased Thermo Fisher Scientific
Procedure, shortened: as §1

RPS6KA3 (RSK2) = biological target: T6, RPS6KA3 (RSK2) (Homo sapiens, UniProt P51812)
T6 construct: purchased Thermo Fisher Scientific
Procedure, shortened: as §1

FGFR3 V555M = biological target: T7, FGFR3 V555M (Homo sapiens, UniProt P22607, V555M)
T7 construct: purchased Thermo Fisher Scientific
T7 sequence (P22607 23-806 V555M): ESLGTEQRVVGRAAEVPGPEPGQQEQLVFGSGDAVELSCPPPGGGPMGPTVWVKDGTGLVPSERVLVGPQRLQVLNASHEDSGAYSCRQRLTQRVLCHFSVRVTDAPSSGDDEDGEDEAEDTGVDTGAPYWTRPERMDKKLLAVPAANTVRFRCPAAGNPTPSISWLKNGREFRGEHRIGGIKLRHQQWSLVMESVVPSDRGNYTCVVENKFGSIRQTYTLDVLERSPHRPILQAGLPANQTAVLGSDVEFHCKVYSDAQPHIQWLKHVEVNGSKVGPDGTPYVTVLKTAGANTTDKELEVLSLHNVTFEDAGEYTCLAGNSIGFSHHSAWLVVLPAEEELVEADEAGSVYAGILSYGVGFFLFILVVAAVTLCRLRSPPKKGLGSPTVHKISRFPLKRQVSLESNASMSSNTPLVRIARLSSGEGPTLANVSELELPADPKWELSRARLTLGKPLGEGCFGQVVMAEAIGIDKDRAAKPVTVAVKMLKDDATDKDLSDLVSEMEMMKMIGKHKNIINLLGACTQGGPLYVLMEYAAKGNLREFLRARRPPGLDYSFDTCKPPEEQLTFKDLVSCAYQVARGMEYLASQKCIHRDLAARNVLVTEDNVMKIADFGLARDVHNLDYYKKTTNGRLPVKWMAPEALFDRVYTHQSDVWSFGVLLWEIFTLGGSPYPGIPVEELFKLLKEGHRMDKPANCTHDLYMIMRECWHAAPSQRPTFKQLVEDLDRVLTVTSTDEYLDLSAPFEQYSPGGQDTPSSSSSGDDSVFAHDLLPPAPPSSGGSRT
Procedure, shortened: as §1

AMPK (A2/B1/G2) = biological target: T8, AMPK (A2/B1/G2) (Homo sapiens, UniProt P54646)
T8 construct: purchased Thermo Fisher Scientific
Procedure, shortened: as §1

[1] = biological target: T9, PIK3CA E545K/PIK3R1 (p11 0 alpha E545K/p85 alpha) (Homo sapiens, UniProt P42336, E545K)
T9 construct: purchased Thermo Fisher Scientific
Procedure, shortened: as §1

TEK (Tie2) = biological target: T10, TEK (Tie2) (Homo sapiens, UniProt Q02763)
T10 construct: purchased Thermo Fisher Scientific
Procedure, shortened: as §1

PAK1 = biological target: T11, PAK1 (Homo sapiens, UniProt Q13153)
T11 construct: purchased Thermo Fisher Scientific
T11 sequence (Q13153 whole entry): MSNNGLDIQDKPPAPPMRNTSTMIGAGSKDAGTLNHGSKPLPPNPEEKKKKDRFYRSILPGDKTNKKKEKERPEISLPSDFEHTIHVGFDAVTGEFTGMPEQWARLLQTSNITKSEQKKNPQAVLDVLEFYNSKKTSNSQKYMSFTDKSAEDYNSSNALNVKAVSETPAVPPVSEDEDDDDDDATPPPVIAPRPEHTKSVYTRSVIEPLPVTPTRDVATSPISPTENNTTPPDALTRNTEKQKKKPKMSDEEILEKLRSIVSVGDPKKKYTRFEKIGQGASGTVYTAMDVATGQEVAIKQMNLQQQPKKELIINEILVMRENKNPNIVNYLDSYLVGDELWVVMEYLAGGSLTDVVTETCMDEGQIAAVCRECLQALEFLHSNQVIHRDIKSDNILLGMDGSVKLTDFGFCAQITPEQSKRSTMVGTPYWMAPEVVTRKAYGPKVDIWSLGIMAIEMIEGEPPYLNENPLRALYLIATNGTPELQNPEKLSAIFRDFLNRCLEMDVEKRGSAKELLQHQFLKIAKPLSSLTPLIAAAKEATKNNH
Procedure, shortened: as §1

CAMK1D (CaMKI delta) = biological target: T12, CAMK1D (CaMKI delta) (Homo sapiens, UniProt Q8IU85)
T12 construct: purchased Thermo Fisher Scientific
Procedure, shortened: as §1

CHEK1 (CHK1) = biological target: T13, CHEK1 (CHK1) (Homo sapiens, UniProt O14757)
T13 construct: purchased Thermo Fisher Scientific
T13 sequence (O14757 1-476): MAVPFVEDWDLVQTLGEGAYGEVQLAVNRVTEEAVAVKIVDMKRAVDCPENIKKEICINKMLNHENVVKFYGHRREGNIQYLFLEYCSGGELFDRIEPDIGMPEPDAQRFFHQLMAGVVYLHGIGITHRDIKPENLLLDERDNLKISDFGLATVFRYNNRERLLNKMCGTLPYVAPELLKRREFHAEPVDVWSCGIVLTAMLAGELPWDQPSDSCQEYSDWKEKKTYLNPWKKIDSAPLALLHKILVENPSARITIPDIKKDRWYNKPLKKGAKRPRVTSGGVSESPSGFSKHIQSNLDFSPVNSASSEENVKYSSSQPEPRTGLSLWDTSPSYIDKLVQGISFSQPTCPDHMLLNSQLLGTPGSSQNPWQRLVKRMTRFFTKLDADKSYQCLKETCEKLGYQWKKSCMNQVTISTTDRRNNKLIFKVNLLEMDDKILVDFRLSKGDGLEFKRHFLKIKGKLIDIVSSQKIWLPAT
Procedure, shortened: as §1

PRKCB1 (PKC beta I) = biological target: T14, PRKCB1 (PKC beta I) (Homo sapiens, UniProt P05771)
T14 construct: purchased Thermo Fisher Scientific
Procedure, shortened: as §1

ROCK1 = biological target: T15, ROCK1 (Homo sapiens, UniProt Q13464)
T15 construct: purchased Thermo Fisher Scientific
T15 sequence (Q13464 whole entry): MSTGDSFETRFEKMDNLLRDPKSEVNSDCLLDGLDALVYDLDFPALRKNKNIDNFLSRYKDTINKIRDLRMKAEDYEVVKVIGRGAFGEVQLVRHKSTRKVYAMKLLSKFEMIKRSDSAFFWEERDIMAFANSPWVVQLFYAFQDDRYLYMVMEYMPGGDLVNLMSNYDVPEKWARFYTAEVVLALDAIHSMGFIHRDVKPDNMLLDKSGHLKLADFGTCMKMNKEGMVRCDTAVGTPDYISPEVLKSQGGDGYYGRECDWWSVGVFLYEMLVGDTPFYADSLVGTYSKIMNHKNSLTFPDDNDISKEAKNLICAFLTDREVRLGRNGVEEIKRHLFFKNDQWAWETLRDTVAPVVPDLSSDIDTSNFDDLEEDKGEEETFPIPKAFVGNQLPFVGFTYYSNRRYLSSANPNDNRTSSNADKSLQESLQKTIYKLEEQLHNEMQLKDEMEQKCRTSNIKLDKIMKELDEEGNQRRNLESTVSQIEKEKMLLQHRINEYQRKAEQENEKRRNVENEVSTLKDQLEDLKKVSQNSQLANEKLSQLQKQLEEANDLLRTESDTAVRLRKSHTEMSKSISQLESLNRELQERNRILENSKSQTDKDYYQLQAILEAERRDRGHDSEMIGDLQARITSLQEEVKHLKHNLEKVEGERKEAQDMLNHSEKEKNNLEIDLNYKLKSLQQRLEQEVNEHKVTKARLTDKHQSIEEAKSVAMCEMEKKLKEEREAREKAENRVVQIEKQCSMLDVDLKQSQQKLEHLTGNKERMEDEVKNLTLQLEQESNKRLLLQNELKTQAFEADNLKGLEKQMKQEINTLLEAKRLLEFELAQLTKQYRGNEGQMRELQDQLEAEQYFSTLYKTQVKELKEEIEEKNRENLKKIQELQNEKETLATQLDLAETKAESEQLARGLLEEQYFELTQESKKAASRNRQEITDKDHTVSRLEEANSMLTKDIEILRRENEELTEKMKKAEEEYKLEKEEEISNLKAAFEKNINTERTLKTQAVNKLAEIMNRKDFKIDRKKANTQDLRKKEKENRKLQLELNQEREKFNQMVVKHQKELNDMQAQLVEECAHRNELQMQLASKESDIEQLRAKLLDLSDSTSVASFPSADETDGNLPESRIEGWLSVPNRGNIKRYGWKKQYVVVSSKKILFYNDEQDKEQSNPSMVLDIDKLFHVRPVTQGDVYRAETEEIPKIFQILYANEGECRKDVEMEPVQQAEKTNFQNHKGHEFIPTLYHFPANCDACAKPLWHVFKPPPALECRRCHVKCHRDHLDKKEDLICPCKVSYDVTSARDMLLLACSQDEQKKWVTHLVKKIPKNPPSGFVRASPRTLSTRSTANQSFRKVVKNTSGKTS
Procedure, shortened: as §1

CDK7/cyclin H/MNAT1 = biological target: T16, CDK7/cyclin H/MNAT1 (Homo sapiens, UniProt P50613)
T16 construct: purchased Thermo Fisher Scientific
Procedure, shortened: as §1

PDGFRA (PDGFR alpha) = biological target: T17, PDGFRA (PDGFR alpha) (Homo sapiens, UniProt P16234)
T17 construct: purchased Thermo Fisher Scientific
T17 sequence (P16234 24-1089): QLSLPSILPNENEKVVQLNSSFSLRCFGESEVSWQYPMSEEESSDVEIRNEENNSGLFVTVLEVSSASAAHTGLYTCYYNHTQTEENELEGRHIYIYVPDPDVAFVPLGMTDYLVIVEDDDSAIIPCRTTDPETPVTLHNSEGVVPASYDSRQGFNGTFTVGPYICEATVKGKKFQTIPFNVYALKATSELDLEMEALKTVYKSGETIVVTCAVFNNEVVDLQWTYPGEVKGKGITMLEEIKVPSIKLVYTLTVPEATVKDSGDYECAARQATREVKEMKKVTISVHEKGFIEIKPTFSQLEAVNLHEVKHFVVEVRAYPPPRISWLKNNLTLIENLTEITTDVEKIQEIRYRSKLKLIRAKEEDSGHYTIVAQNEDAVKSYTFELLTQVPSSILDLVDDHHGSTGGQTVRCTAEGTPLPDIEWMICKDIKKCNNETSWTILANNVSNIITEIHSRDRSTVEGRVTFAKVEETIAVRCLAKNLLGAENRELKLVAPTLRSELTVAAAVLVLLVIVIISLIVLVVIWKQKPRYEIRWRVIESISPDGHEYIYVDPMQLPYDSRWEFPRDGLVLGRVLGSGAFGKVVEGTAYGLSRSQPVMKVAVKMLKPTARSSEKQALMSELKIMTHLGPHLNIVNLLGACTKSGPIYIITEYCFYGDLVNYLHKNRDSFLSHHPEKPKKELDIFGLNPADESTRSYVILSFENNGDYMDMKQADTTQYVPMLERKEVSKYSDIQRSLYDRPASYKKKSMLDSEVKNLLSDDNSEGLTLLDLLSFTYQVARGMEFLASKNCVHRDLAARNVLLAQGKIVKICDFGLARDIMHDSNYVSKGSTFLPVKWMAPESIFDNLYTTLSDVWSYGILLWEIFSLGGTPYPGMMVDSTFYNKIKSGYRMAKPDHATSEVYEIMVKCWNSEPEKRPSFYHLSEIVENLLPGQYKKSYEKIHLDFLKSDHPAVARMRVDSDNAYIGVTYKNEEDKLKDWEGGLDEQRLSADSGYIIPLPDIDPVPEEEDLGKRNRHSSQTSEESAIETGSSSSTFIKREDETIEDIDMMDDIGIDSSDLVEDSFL
Procedure, shortened: as §1

Row | SMILES | inhibition at 1 µM (MELK) | inhibition at 10 µM (MELK) | inhibition at 1 µM (ABL1) | inhibition at 10 µM (ABL1) | inhibition at 1 µM (GSK3A (GSK3 alpha)) | inhibition at 10 µM (GSK3A (GSK3 alpha)) | inhibition at 1 µM (ABL2 (Arg)) | inhibition at 10 µM (ABL2 (Arg)) | inhibition at 1 µM (GRK4) | inhibition at 10 µM (GRK4) | inhibition at 1 µM (RPS6KA3 (RSK2)) | inhibition at 10 µM (RPS6KA3 (RSK2)) | inhibition at 1 µM (FGFR3 V555M) | inhibition at 10 µM (FGFR3 V555M) | inhibition at 1 µM (AMPK (A2/B1/G2)) | inhibition at 10 µM (AMPK (A2/B1/G2)) | inhibition at 1 µM [1] | inhibition at 10 µM [1] | inhibition at 1 µM (TEK (Tie2)) | inhibition at 10 µM (TEK (Tie2)) | also measured
1 | COc1ccc2c(c1OC)c(=O)n1c3ccc(O)cc3c3ccnc2c31 [MW01, 5-Hydroxy-10,11-dimethoxy-9H-benzo[c]indolo[3,2,1-ij][1,5]naphthyridin-9-one] | 26% | 54% | 15% | 27% | 25% | 55% | 9% | 21% | 8% | 12% | 5% | 10% | 5% | 11% | -12% | 10% | 91% | 97% | 19% | 5% | inhibition at 1 µM (PAK1): 10%; inhibition at 10 µM (PAK1): 22%; inhibition at 1 µM (CAMK1D (CaMKI delta)): 5%; inhibition at 10 µM (CAMK1D (CaMKI delta)): 9%; inhibition at 1 µM (CHEK1 (CHK1)): 4%; inhibition at 10 µM (CHEK1 (CHK1)): 13%; inhibition at 1 µM (PRKCB1 (PKC beta I)): 1%; inhibition at 10 µM (PRKCB1 (PKC beta I)): -17%; inhibition at 1 µM (ROCK1): 0%; inhibition at 10 µM (ROCK1): 13%; inhibition at 1 µM (CDK7/cyclin H/MNAT1): 3%; inhibition at 10 µM (CDK7/cyclin H/MNAT1): 4%; inhibition at 1 µM (PDGFRA (PDGFR alpha)): 20%; inhibition at 10 µM (PDGFRA (PDGFR alpha)): 47%
2 | COc1ccc2cc3c(N)nn(C(=O)c4cccc(N(C)C)c4)c3nc2c1 [MW05, (3-Amino-7-methoxypyrazolo[3,4-b]quinolin-1-yl)-[3-(dimethylamino)phenyl]methanone] | 28% | 48% | 4% | 6% | 3% | 18% | 5% | 2% | -1% | 2% | 3% | 2% | -30% | -9% | -12% | -16% | 15% | 61% | -2% | 12% | inhibition at 1 µM (PAK1): 16%; inhibition at 10 µM (PAK1): 2%; inhibition at 1 µM (CAMK1D (CaMKI delta)): 1%; inhibition at 10 µM (CAMK1D (CaMKI delta)): -1%; inhibition at 1 µM (CHEK1 (CHK1)): 16%; inhibition at 10 µM (CHEK1 (CHK1)): 27%; inhibition at 1 µM (PRKCB1 (PKC beta I)): 5%; inhibition at 10 µM (PRKCB1 (PKC beta I)): -7%; inhibition at 1 µM (ROCK1): -4%; inhibition at 10 µM (ROCK1): -5%; inhibition at 1 µM (CDK7/cyclin H/MNAT1): 2%; inhibition at 10 µM (CDK7/cyclin H/MNAT1): 29%; inhibition at 1 µM (PDGFRA (PDGFR alpha)): 7%; inhibition at 10 µM (PDGFRA (PDGFR alpha)): 6%
